# Assay results reported in US20180352841A1, “COMPOSITION HAVING RICH-TASTE IMPARTING FUNCTION” (AJINOMOTO CO., INC., priority 2016, published 2018).
# How the values were obtained:
# [1] = Organoleptic evaluation of coffee-like thickness in milk coffee with 0.2 ppm γ-Glu-Val-Gly (Example 1); details: for Coffee-like thickness (initial taste) / Coffee-like thickness (middle to aftertaste): milk coffee + 0.2 ppm γ-Glu-Val-Gly (control sample = score 0); for Coffee-like thickness (initial taste): 0 to 1 second after drinking, score 0 to 3 (0 no effect, 1 weakly effective, 2 effective, 3 strongly effective), 2 to 4 panelists, ingredient ppm: succinic acid 5, proline 12.5, KH2PO4 3, K2HPO4 12.5, L-tartaric acid 6, adipic acid 25, citric acid 3.5, CaCl2 50, MgCl2 12.5, DL-malic acid 3, trisodium citrate 0.8, sodium fumarate 1.5; for Coffee-like thickness (middle to aftertaste): 1 to 5 seconds after drinking, score 0 to 3, ingredient ppm as in Table 1 c0 (succinic acid 5, proline 12.5, KH2PO4 3, K2HPO4 12.5, L-tartaric acid 6, adipic acid 25, citric acid 3.5, CaCl2 50, MgCl2 12.5, DL-malic acid 3, trisodium citrate 0.8, sodium fumarate 1.5); for Thickness-enhancing effect for the initial taste: milk coffee + 0.2 ppm γ-Glu-Val-Gly, summary of Table 1
# Experimental: As an evaluation system, milk coffee (“Birdy Robusta”, Ajinomoto Co., (Thailand) Ltd.) was used. To this milk coffee, 0.2 ppm of γ-Glu-Val-Gly was added, to prepare a control sample.
# Organoleptic evaluation was performed by 2 to 4 persons of special panelists for strength of “coffee-like thickness” of each sample, to determine thickness-enhancing effects (thickness-boosting effect) of the ingredients to be evaluated.
# [2] = Organoleptic evaluation of salty taste-like thickness in potage soup with 2 ppm γ-Glu-Val-Gly (Example 2); details: for Salty taste-like thickness (initial taste) / Salty taste-like thickness (middle to aftertaste): potage soup + 2 ppm γ-Glu-Val-Gly (control = score 0), score 0 to 3, L-tartaric acid 6 ppm, adipic acid 25 ppm, citric acid 2 ppm; for Salty taste-like thickness (initial taste): 0 to 1 second; for Salty taste-like thickness (middle to aftertaste): 1 to 5 seconds
# [3] = Organoleptic evaluation of coffee-like thickness in milk coffee with 0.6 ppm γ-Glu-Abu-Gly (Example 3); details: for thickness-enhancing effect for initial taste: milk coffee + 0.6 ppm γ-Glu-Abu-Gly, summary of Table 3; for Coffee-like thickness (initial taste) / Coffee-like thickness (middle to aftertaste): milk coffee + γ-Glu-Abu-Gly 0.6 ppm (control = score 0), score 0 to 3, L-tartaric acid 6 ppm, adipic acid 25 ppm, citric acid 3.5 ppm; for Coffee-like thickness (initial taste): 0 to 1 second; for Coffee-like thickness (middle to aftertaste): 1 to 5 seconds
# Experimental: (§1) Organoleptic evaluation was performed by 2 to 4 persons of special panelists for strength of “coffee-like thickness” of each sample, to determine thickness-enhancing effects (thickness-boosting effect) of the ingredients to be evaluated. The organoleptic evaluation was performed by a four grade scoring method for initial taste, middle taste, and aftertaste (sensed in the periods of 0 to 1 second, 1 to 3 seconds, and 3 to 5 seconds after drinking, respectively, which periods are defined for a liquid) with scores of 0 to 3, wherein score 0 means no effect (i.e. strength of the thickness is the same as that of the control sample), score 1 means weakly effective, score 2 means effective, and score 3 means strongly effective.
# (§2) As an evaluation system, milk coffee (“Birdy Robusta”, Ajinomoto Co., (Thailand) Ltd.) was used.
# (§3) Organoleptic evaluation was performed for strength of “coffee-like thickness” of each sample by 2 persons of special panelists with the same criteria as those of Example 1 wherein score 0 was defined to mean the strength of thickness of each control sample, to determine thickness-enhancing effects (thickness-boosting effects) of the ingredients to be evaluated.
# [4] = Organoleptic evaluation of thickness in cookie with 5 ppm γ-Glu-Val-Gly (Example 4); details: for Thickness-enhancing effect for the initial taste: cookie with 5 ppm γ-Glu-Val-Gly, text summary of Table 4; for Thickness (initial taste) / Thickness (middle to aftertaste): cookie, γ-Glu-Val-Gly 5 ppm in dough (control = score 0), score 0 to 3, L-tartaric acid 5 ppm, sodium L-tartrate 2 ppm, adipic acid 20 ppm, citric acid 1 ppm; for Thickness (initial taste): 0 to 4 seconds after eating; for Thickness (middle to aftertaste): 4 to 15 seconds after eating
# Experimental: Organoleptic evaluation was performed by 2 persons of special panelists for strength of “thickness” of each sample, to determine thickness-enhancing effects (thickness-boosting effect) of the ingredients to be evaluated. The organoleptic evaluation was performed by a four grade scoring method for initial taste, middle taste, and aftertaste (sensed in the periods of 0 to 4 second, 4 to 10 seconds, and 10 to 15 seconds after eating, respectively, which periods are defied for a solid) with scores of 0 to 3, wherein score 0 means no effect (i.e. strength of the thickness is the same as that of the control sample, score 1 means weakly effective, score 2 means effective, and score 3 means strongly effective.
# [5] = Organoleptic evaluation of coffee-like thickness in milk coffee with 0.8 ppm γ-Glu-Abu (Example 3); details: for thickness-enhancing effect for initial taste: milk coffee + 0.8 ppm γ-Glu-Abu, summary of Table 3; for Coffee-like thickness (initial taste) / Coffee-like thickness (middle to aftertaste): milk coffee + γ-Glu-Abu 0.8 ppm (control = score 0), score 0 to 3, L-tartaric acid 6 ppm, adipic acid 25 ppm, citric acid 3.5 ppm; for Coffee-like thickness (initial taste): 0 to 1 second; for Coffee-like thickness (middle to aftertaste): 1 to 5 seconds
# Experimental: as §1, §2, §3
# [6] = Organoleptic evaluation of thickness in carbonated lemon drink with 15 ppm γ-Glu-Val-Gly (Example 2); details: for Thickness (initial taste) / Thickness (middle to aftertaste): carbonated lemon drink + 15 ppm γ-Glu-Val-Gly (control = score 0), score 0 to 3, L-tartaric acid 24 ppm, adipic acid 50 ppm, citric acid 3.5 ppm; for Thickness (initial taste): 0 to 1 second; for Thickness (middle to aftertaste): 1 to 5 seconds
# [7] = potage soup + 2 ppm γ-Glu-Val-Gly, Table 2
# [8] = carbonated lemon drink + 15 ppm γ-Glu-Val-Gly, Table 2
smiles,measurement,setting,value
[Cl-].[Cl-].[Mg+2] [Magnesium chloride],Coffee-like thickness (initial taste),[1],0
same,Coffee-like thickness (middle to aftertaste),[1],0
O=C(O)[C@H](O)[C@@H](O)C(=O)O [L-Tartaric acid],Salty taste-like thickness (initial taste),[2],1.3
same,Salty taste-like thickness (middle to aftertaste),[2],0
same,thickness-enhancing effect for initial taste,[2]; [7],observed
same,thickness-enhancing effect for initial taste,[3],observed
same,Coffee-like thickness (initial taste),[3],1.5
same,Coffee-like thickness (middle to aftertaste),[3],0
same,Coffee-like thickness (initial taste),[1],1.5
same,Coffee-like thickness (middle to aftertaste),[1],0
same,Thickness-enhancing effect for the initial taste,[1],observed
same,Thickness-enhancing effect for the initial taste,[4],observed
same,Thickness (initial taste),[4],1.5
same,Thickness (middle to aftertaste),[4],1.0
same,thickness-enhancing effect for initial taste,[5],observed
same,Coffee-like thickness (initial taste),[5],1.5
same,Coffee-like thickness (middle to aftertaste),[5],0
same,Thickness (initial taste),[6],1.0
same,Thickness (middle to aftertaste),[6],0
same,thickness-enhancing effect for initial taste,[6]; [8],observed
O=C(O)[C@@H]1CCCN1 [Proline],Coffee-like thickness (initial taste),[1],0
same,Coffee-like thickness (middle to aftertaste),[1],1.5
O=C(O)CCCCC(=O)O [Adipic acid],Salty taste-like thickness (initial taste),[2],1.3
same,Salty taste-like thickness (middle to aftertaste),[2],0
same,thickness-enhancing effect for initial taste,[2]; [7],observed
same,thickness-enhancing effect for initial taste,[3],observed
same,Coffee-like thickness (initial taste),[3],1.0
same,Coffee-like thickness (middle to aftertaste),[3],1.0
same,Coffee-like thickness (initial taste),[1],1.0
same,Coffee-like thickness (middle to aftertaste),[1],0
same,Thickness-enhancing effect for the initial taste,[1],observed
same,Thickness-enhancing effect for the initial taste,[4],observed
same,Thickness (initial taste),[4],1.2
same,Thickness (middle to aftertaste),[4],1.0
same,thickness-enhancing effect for initial taste,[5],observed
same,Coffee-like thickness (initial taste),[5],1.0
same,Coffee-like thickness (middle to aftertaste),[5],0.5
same,Thickness (initial taste),[6],1.5
same,Thickness (middle to aftertaste),[6],0
same,thickness-enhancing effect for initial taste,[6]; [8],observed
O=C([O-])/C=C/C(=O)[O-].[Na+].[Na+] [Sodium fumarate],Coffee-like thickness (initial taste),[1],0
same,Coffee-like thickness (middle to aftertaste),[1],0
O=P([O-])([O-])O.[K+].[K+] [Dipotassium hydrogenphosphate],Coffee-like thickness (initial taste),[1],0
same,Coffee-like thickness (middle to aftertaste),[1],1.0
"O=C(O)CC(O)(CC(=O)O)C(=O)O [Citric acid, reference compound]",Salty taste-like thickness (initial taste),[2],0
same,Salty taste-like thickness (middle to aftertaste),[2],0
same,thickness-enhancing effect,[2]; [7],not observed
same,Coffee-like thickness (initial taste),[3],0
same,Coffee-like thickness (middle to aftertaste),[3],0
same,Coffee-like thickness (initial taste),[1],0
same,Coffee-like thickness (middle to aftertaste),[1],0
same,Thickness (initial taste),[4],0
same,Thickness (middle to aftertaste),[4],0
same,Coffee-like thickness (initial taste),[5],0
same,Coffee-like thickness (middle to aftertaste),[5],0
same,Thickness (initial taste),[6],0
same,Thickness (middle to aftertaste),[6],0
same,thickness-enhancing effect,[6]; [8],not observed
[Ca+2].[Cl-].[Cl-] [Calcium chloride],Coffee-like thickness (initial taste),[1],0
same,Coffee-like thickness (middle to aftertaste),[1],0
O=P([O-])(O)O.[K+] [Potassium dihydrogenphosphate],Coffee-like thickness (initial taste),[1],0
same,Coffee-like thickness (middle to aftertaste),[1],0.5
O=C([O-])CC(O)(CC(=O)[O-])C(=O)[O-].[Na+].[Na+].[Na+] [Trisodium citrate],Coffee-like thickness (initial taste),[1],0
same,Coffee-like thickness (middle to aftertaste),[1],0
O=C(O)CC(O)C(=O)O (racemic) [DL-Malic acid],Coffee-like thickness (initial taste),[1],0
same,Coffee-like thickness (middle to aftertaste),[1],0
O=C(O)CCC(=O)O [Succinic acid],Coffee-like thickness (initial taste),[1],0
same,Coffee-like thickness (middle to aftertaste),[1],2.5
O=C([O-])[C@H](O)[C@@H](O)C(=O)[O-].[Na+].[Na+] [Sodium L-tartrate],Thickness (initial taste),[4],0.7
same,Thickness (middle to aftertaste),[4],0.5
